In the NIST ThermoML archive (doi:10.1016/j.fluid.2016.04.009):

How the values were obtained:
[1] = for Normal melting temperature: Crystal, DTA; for viscosity / mass density: 101.33 kPa; for viscosity / mass density / surface tension liquid-gas: Liquid; for viscosity: Concentric cylinders viscometry; for mass density: Vibrating tube method; for surface tension liquid-gas: Pendant drop shape
[2] = Molar enthalpy of transition or fusion; details: Crystal; DSC
[3] = refractive index (Na D-line) (dimensionless); details: 101.33 kPa, Liquid, Standard Abbe refractometry
[4] = molar heat capacity at constant pressure; details: 298.15 K; 101.33 kPa; Liquid; Drop calorimetry

CCCCCC[n+]1ccn(C)c1.O=S(=O)([N-]S(=O)(=O)C(F)(F)F)C(F)(F)F
Details	Normal melting temperature [°C]
[1]	-10.5

CC(C)C[N+]1(C)CCCC1.O=S(=O)([N-]S(=O)(=O)C(F)(F)F)C(F)(F)F
Details	Molar enthalpy of transition or fusion [kcal/mol]	Normal melting temperature [°C]	molar heat capacity at constant pressure [J/K/mol]
[1]	–	-0.2	–
[2]	3.13	–	–
[4]	–	–	582.08

Details	mass density [kg/m3]	refractive index	surface tension liquid-gas [mN/m]	viscosity [mPa·s]
[1], 293.15 K	1404.5	–	–	83.61
[1], 298.15 K	1400	–	–	66.29
[1], 298.2 K	–	–	33.54	–
[1], 303.15 K	1395.6	–	–	53.53
[1], 308.15 K	1391.2	–	–	43.91
[1], 308.2 K	–	–	33.1	–
[1], 313.15 K	1386.8	–	–	36.52
[1], 318.15 K	1382.4	–	–	30.75
[1], 318.2 K	–	–	32.65	–
[1], 323.15 K	1378	–	–	26.18
[1], 328.15 K	1373.7	–	–	22.52
[1], 328.2 K	–	–	32.2	–
[1], 333.15 K	1369.4	–	–	19.57
[1], 338.15 K	1365.2	–	–	17.09
[1], 338.2 K	–	–	31.75	–
[1], 343.15 K	1360.9	–	–	15.06
[1], 343.2 K	–	–	31.53	–
[1], 348.15 K	1356.7	–	–	13.36
[1], 353.15 K	1352.5	–	–	11.95
[1], 358.15 K	1348.3	–	–	10.7
[1], 363.15 K	1344.1	–	–	9.65
[3], 288.15 K	–	1.42708	–	–
[3], 293.15 K	–	1.42563	–	–
[3], 298.15 K	–	1.42418	–	–
[3], 303.15 K	–	1.42273	–	–
[3], 308.15 K	–	1.42127	–	–
[3], 313.15 K	–	1.41982	–	–
[3], 318.15 K	–	1.41837	–	–

CCCC[n+]1cccc(C)c1.O=S(=O)([N-]S(=O)(=O)C(F)(F)F)C(F)(F)F
Details	mass density, [1] [kg/m3]	refractive index, [3]	viscosity, [1] [mPa·s]
288.15 K	–	1.44894	–
293.15 K	1418.7	1.44737	84.2
298.15 K	1414.1	1.4458	65.74
303.15 K	1409.4	1.44423	52.39
308.15 K	1404.8	1.44266	42.46
313.15 K	1400.2	1.44109	34.93
318.15 K	1395.6	1.43952	29.13
323.15 K	1391.1	–	24.59
328.15 K	1386.6	–	20.97
333.15 K	1382	–	18.1
338.15 K	1377.6	–	15.71
343.15 K	1373.1	–	13.77
348.15 K	1368.7	–	12.15
353.15 K	1364.3	–	10.82
358.15 K	1359.9	–	9.66
363.15 K	1355.6	–	8.69

Details	molar heat capacity at constant pressure [J/K/mol]
[4]	578.01

CC(C)C[N+]1(C)CCCCC1.O=S(=O)([N-]S(=O)(=O)C(F)(F)F)C(F)(F)F
Details	Molar enthalpy of transition or fusion [kcal/mol]	Normal melting temperature [°C]
[1]	–	14.8
[2]	0.574	–

Details	mass density [kg/m3]	refractive index	surface tension liquid-gas [mN/m]	viscosity [mPa·s]
[1], 303.15 K	1392.9	–	–	125.12
[1], 308.15 K	1388.6	–	–	96.4
[1], 308.2 K	–	–	33.9	–
[1], 313.15 K	1384.4	–	–	76.03
[1], 318.15 K	1380.1	–	–	60.67
[1], 318.2 K	–	–	33.45	–
[1], 323.15 K	1375.9	–	–	49.34
[1], 328.15 K	1371.7	–	–	40.71
[1], 328.2 K	–	–	33.01	–
[1], 333.15 K	1367.5	–	–	34.11
[1], 338.15 K	1363.3	–	–	28.76
[1], 338.2 K	–	–	32.56	–
[1], 343.15 K	1359.1	–	–	24.57
[1], 343.2 K	–	–	32.34	–
[1], 348.15 K	1355	–	–	21.18
[1], 353.15 K	1350.8	–	–	18.47
[1], 358.15 K	1346.7	–	–	16.14
[1], 363.15 K	1342.7	–	–	14.25
[3], 288.15 K	–	1.43387	–	–
[3], 293.15 K	–	1.43243	–	–
[3], 298.15 K	–	1.43099	–	–
[3], 303.15 K	–	1.42955	–	–
[3], 308.15 K	–	1.42812	–	–
[3], 313.15 K	–	1.42668	–	–
[3], 318.15 K	–	1.42524	–	–
[3], 323.15 K	–	1.42381	–	–
[3], 328.15 K	–	1.42237	–	–
[3], 333.15 K	–	1.42093	–	–

CCCC[n+]1ccn(C)c1.O=S(=O)([N-]S(=O)(=O)C(F)(F)F)C(F)(F)F
[3]
Details	refractive index
288.15 K	1.43015
293.15 K	1.4286
298.15 K	1.42705
303.15 K	1.4255
308.15 K	1.42396
313.15 K	1.42241
318.15 K	1.42086

Details	molar heat capacity at constant pressure [J/K/mol]
[4]	565.73

CC(C)Cn1cc[n+](C)c1.O=S(=O)([N-]S(=O)(=O)C(F)(F)F)C(F)(F)F
Details	mass density [kg/m3]	refractive index	surface tension liquid-gas [mN/m]	viscosity [mPa·s]
[1], 293.15 K	1442.1	–	–	107.35
[1], 298.15 K	1437.2	–	–	81.44
[1], 298.2 K	–	–	32.72	–
[1], 303.15 K	1432.4	–	–	63.36
[1], 308.15 K	1427.7	–	–	50.3
[1], 308.2 K	–	–	32.26	–
[1], 313.15 K	1422.9	–	–	40.69
[1], 318.15 K	1418.2	–	–	33.4
[1], 318.2 K	–	–	31.81	–
[1], 323.15 K	1413.5	–	–	27.81
[1], 328.15 K	1408.8	–	–	23.46
[1], 328.2 K	–	–	31.35	–
[1], 333.15 K	1404.2	–	–	20.05
[1], 338.15 K	1399.5	–	–	17.24
[1], 338.2 K	–	–	30.9	–
[1], 343.15 K	1394.9	–	–	14.99
[1], 343.2 K	–	–	30.67	–
[1], 348.15 K	1390.3	–	–	13.14
[1], 353.15 K	1385.7	–	–	11.63
[1], 358.15 K	1381.1	–	–	10.31
[1], 363.15 K	1376.6	–	–	9.22
[3], 288.15 K	–	1.4301	–	–
[3], 293.15 K	–	1.42854	–	–
[3], 298.15 K	–	1.42699	–	–
[3], 303.15 K	–	1.42543	–	–
[3], 308.15 K	–	1.42387	–	–
[3], 313.15 K	–	1.42232	–	–
[3], 318.15 K	–	1.42076	–	–

Details	molar heat capacity at constant pressure [J/K/mol]
[4]	565.31

CCCC[N+]1(C)CCCC1.O=S(=O)([N-]S(=O)(=O)C(F)(F)F)C(F)(F)F
Details	Molar enthalpy of transition or fusion [kcal/mol]	Normal melting temperature [°C]	molar heat capacity at constant pressure [J/K/mol]
[1]	–	-13.4	–
[2]	4.83	–	–
[4]	–	–	584.19

Details	mass density, [1] [kg/m3]	refractive index, [3]	viscosity, [1] [mPa·s]
288.15 K	–	1.42612	–
293.15 K	1406.1	1.42466	101.71
298.15 K	1401.6	1.42319	79.57
303.15 K	1397.2	1.42173	63.64
308.15 K	1392.7	1.42027	51.71
313.15 K	1388.3	1.4188	42.67
318.15 K	1383.8	1.41734	35.6
323.15 K	1379.4	–	30.07
328.15 K	1375.1	–	25.66
333.15 K	1370.7	–	22.16
338.15 K	1366.4	–	19.21
343.15 K	1362.1	–	16.83
348.15 K	1357.8	–	14.84
353.15 K	1353.6	–	13.21
358.15 K	1349.3	–	11.77
363.15 K	1345.1	–	10.57

CCCC[N+]1(C)CCCCC1.O=S(=O)([N-]S(=O)(=O)C(F)(F)F)C(F)(F)F
Details	mass density [kg/m3]	refractive index	surface tension liquid-gas [mN/m]	viscosity [mPa·s]
[1], 293.15 K	1386.9	–	–	261.28
[1], 298.15 K	1382.5	–	–	189.11
[1], 298.2 K	–	–	34.14	–
[1], 303.15 K	1378.1	–	–	141.44
[1], 308.15 K	1373.8	–	–	108.27
[1], 308.2 K	–	–	33.65	–
[1], 313.15 K	1369.5	–	–	84.87
[1], 318.15 K	1365.2	–	–	67.24
[1], 318.2 K	–	–	33.17	–
[1], 323.15 K	1361	–	–	54.34
[1], 328.15 K	1356.7	–	–	44.55
[1], 328.2 K	–	–	32.68	–
[1], 333.15 K	1352.5	–	–	37.09
[1], 338.15 K	1348.3	–	–	31.09
[1], 338.2 K	–	–	32.2	–
[1], 343.15 K	1344.1	–	–	26.41
[1], 343.2 K	–	–	31.96	–
[1], 348.15 K	1340	–	–	22.65
[1], 353.15 K	1335.9	–	–	19.65
[1], 358.15 K	1331.8	–	–	17.09
[1], 363.15 K	1327.7	–	–	15.01
[3], 288.15 K	–	1.43251	–	–
[3], 293.15 K	–	1.43105	–	–
[3], 298.15 K	–	1.42959	–	–
[3], 303.15 K	–	1.42813	–	–
[3], 308.15 K	–	1.42667	–	–
[3], 313.15 K	–	1.42521	–	–
[3], 318.15 K	–	1.42375	–	–

Details	molar heat capacity at constant pressure [J/K/mol]
[4]	607.52

Cc1ccc[n+](CC(C)C)c1.O=S(=O)([N-]S(=O)(=O)C(F)(F)F)C(F)(F)F
Details	mass density [kg/m3]	refractive index	surface tension liquid-gas [mN/m]	viscosity [mPa·s]
[1], 293.15 K	1417.2	–	–	135.42
[1], 298.15 K	1412.6	–	–	100.1
[1], 298.2 K	–	–	33.45	–
[1], 303.15 K	1408	–	–	76.34
[1], 308.15 K	1403.4	–	–	59.56
[1], 308.2 K	–	–	32.99	–
[1], 313.15 K	1398.8	–	–	47.48
[1], 318.15 K	1394.2	–	–	38.42
[1], 318.2 K	–	–	32.54	–
[1], 323.15 K	1389.7	–	–	31.63
[1], 328.15 K	1385.1	–	–	26.4
[1], 328.2 K	–	–	32.08	–
[1], 333.15 K	1380.6	–	–	22.36
[1], 338.15 K	1376.1	–	–	19.08
[1], 338.2 K	–	–	31.63	–
[1], 343.15 K	1371.6	–	–	16.47
[1], 343.2 K	–	–	31.4	–
[1], 348.15 K	1367.2	–	–	14.35
[1], 353.15 K	1362.8	–	–	12.63
[1], 358.15 K	1358.4	–	–	11.14
[1], 363.15 K	1354.1	–	–	9.93
[3], 288.15 K	–	1.44902	–	–
[3], 293.15 K	–	1.44743	–	–
[3], 298.15 K	–	1.44585	–	–
[3], 303.15 K	–	1.44426	–	–
[3], 308.15 K	–	1.44268	–	–
[3], 313.15 K	–	1.44109	–	–
[3], 318.15 K	–	1.43951	–	–

Details	molar heat capacity at constant pressure [J/K/mol]
[4]	578.87
